Measured values reported in patent US5741781A, “Mercaptoalkanoyldipeptide compounds” (Adir et Compagnie, priority 1995, dated 1998).

Experiments:
[1] = tested on: spontaneously hypertensive male rat (SHR); experiment: Anti-hypertensive effect in the spontaneously hypertensive rat (SHR); format: in vivo
Protocol: The anti-hypertensive effect of the compounds of the invention is determined in vivo in the rat affected by a hypertension induced by the administration of DOCA salt (deoxycorticosterone acetate) and in the spontaneously hypertensive male rat (SHR), in accordance with the protocol described by Trapani et al. (J. Cardiovasc. Pharmacol., 14, (1989), 419-424). In that test the compounds of the invention are shown to be powerful anti-hypertensives and to be non-toxic.

[2] = molecular target: T1, renal neutral endopeptidase (NEP) (Mus musculus, UniProt Q61391); experiment: Inhibition in vivo of renal NEP, competition with [3H]HACBOGIy; settings: mice, p.o. single dose 2.6 × 10^-6 mol/kg (1.5 mg/kg)
T1 construct: from tissue; host or cells: mouse kidney (in vivo, homogenised after sacrifice)
T1 sequence (Q61391 1-750): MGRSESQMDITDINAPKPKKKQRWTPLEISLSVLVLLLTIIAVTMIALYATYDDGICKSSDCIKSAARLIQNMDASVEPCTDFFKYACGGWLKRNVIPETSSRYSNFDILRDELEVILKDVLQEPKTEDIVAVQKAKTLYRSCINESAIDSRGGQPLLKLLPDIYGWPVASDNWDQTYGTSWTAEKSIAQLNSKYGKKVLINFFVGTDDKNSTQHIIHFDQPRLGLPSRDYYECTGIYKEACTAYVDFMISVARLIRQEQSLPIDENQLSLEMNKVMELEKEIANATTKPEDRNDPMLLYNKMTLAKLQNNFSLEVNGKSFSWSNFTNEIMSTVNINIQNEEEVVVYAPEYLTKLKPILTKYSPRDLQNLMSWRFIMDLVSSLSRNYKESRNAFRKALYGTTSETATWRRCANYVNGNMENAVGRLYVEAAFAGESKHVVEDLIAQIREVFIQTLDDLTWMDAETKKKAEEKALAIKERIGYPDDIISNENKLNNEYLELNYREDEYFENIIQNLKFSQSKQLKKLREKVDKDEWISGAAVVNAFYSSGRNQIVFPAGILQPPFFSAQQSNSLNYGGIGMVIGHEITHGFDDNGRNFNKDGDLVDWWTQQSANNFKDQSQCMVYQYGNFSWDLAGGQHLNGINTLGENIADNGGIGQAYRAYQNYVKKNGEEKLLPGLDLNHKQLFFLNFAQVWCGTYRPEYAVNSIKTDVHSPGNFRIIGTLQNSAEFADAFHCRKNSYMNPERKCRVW
Protocol: (§1) The compounds are administrated per os to mice in a single dose. Inhibition of both enzymes is measured during a time period from 1 hour to 16 hours by competitive experiments with specific radiolabelled markers for each enzyme. After i.v. administration of a radiolabelled ACE inhibitor ([^3 H]trandolaprilate) or a radiolabelled NEP inhibitor ([^3 H]HACBOGIy), the animal is sacrificed and the lungs or the kidneys are removed. The organs are homogenized and the radioactivity associated to these homogenates is measured by liquid scintillation as described in the protocol by M. C. Fourni6-Zaluski et al. (J. Med. Chem., 37, (1994), 1070-1083).

[3] = molecular target: T2, pulmonary peptidyldipeptidase A (ACE) (Mus musculus, UniProt P09470); experiment: Inhibition in vivo of pulmonary ACE, competition with [3H]trandolaprilate; settings: mice, p.o. single dose 2.6 × 10^-6 mol/kg (1.5 mg/kg)
T2 construct: from tissue; host or cells: mouse lung (in vivo, homogenised after sacrifice)
T2 sequence (P09470 35-1312): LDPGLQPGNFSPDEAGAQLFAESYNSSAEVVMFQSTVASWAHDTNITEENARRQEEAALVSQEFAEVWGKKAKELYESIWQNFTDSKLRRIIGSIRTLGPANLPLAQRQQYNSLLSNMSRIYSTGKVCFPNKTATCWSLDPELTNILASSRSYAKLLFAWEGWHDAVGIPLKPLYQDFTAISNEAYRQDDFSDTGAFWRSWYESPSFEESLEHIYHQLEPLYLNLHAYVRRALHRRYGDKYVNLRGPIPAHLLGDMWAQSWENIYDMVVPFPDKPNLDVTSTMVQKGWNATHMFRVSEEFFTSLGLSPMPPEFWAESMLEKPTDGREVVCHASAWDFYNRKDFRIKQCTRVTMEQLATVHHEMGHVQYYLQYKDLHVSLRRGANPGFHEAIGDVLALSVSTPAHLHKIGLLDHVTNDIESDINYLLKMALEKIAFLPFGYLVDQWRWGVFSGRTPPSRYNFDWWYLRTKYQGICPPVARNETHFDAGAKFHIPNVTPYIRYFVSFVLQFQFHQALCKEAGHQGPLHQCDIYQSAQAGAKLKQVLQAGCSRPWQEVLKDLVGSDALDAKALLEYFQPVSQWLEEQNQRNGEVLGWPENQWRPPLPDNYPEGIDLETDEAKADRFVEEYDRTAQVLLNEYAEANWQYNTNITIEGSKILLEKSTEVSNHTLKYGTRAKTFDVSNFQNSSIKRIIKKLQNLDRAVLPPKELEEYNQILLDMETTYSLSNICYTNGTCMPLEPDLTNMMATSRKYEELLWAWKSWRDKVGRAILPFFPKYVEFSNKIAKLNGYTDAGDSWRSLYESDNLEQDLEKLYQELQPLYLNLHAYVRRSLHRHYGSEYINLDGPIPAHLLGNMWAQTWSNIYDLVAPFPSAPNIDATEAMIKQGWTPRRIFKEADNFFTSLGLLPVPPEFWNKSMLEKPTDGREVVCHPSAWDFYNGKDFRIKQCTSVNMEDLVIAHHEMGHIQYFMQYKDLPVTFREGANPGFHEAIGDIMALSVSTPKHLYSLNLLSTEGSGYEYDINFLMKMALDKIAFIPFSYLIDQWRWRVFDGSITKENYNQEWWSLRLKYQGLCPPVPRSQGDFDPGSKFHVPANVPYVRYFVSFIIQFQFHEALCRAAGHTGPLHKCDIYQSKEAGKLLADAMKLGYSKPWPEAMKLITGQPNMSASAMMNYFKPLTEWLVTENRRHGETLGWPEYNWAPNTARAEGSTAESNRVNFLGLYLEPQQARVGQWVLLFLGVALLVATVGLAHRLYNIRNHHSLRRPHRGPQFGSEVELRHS
Protocol: as §1

[4] = cited from earlier work
[5] = molecular target: neutral endopeptidase called "encephalinase" (Homo sapiens, UniProt P08473); settings: Nature, 228, (1980), 286-288; cited from earlier work
neutral endopeptidase called "encephalinase", sequence (P08473 whole entry): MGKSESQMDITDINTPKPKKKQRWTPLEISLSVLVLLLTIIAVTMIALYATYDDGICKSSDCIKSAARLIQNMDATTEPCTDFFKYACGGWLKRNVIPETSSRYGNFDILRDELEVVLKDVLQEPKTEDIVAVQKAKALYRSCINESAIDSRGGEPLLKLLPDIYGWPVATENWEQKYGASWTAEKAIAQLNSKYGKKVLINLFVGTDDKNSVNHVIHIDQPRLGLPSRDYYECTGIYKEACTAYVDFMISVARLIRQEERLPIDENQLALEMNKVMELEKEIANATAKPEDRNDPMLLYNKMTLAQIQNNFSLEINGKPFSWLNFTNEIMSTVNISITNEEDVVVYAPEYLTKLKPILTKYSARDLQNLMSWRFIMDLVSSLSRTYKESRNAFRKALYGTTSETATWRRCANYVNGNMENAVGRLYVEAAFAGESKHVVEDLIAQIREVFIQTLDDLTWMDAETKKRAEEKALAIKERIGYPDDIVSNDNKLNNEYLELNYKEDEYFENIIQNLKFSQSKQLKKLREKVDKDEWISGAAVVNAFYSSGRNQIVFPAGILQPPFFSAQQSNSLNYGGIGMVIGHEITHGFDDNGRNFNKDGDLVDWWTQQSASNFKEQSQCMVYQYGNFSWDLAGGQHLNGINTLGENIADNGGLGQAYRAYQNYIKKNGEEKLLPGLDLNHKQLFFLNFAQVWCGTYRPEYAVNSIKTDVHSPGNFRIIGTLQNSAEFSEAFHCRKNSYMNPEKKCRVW

[6] = molecular target: neutral endopeptidase (NEP) (Homo sapiens, UniProt P08473); experiment: Inhibitory effect in vitro on neutral endopeptidase, [3H]-D-Ala2-Leu-encephalin as substrate; format: biochemical; settings: comment on Table I
neutral endopeptidase (NEP), sequence (P08473 whole entry, species assumed): as the sequence (P08473 whole entry) above

O=C(NCC(=O)N1[C@@H](c2cccc(O)c2)CC[C@H]1C(=O)O)[C@@H](S)Cc1ccc(O)cc1 [Example 47, N-[N-(5R)-[(2S)-2-mercapto-3-(para-hydroxyphenyl)propanoyl]glycyl]5-(meta-hydroxyphenyl)-L-proline]
Systolic blood pressure (mm Hg) Treated animals ([1]; p.o. 25 mg/kg/day Day 1 to Day 6, n = 10, Day 0): 210 ± 5 mm Hg
Systolic blood pressure (mm Hg) Treated animals ([1]; p.o. 25 mg/kg/day Day 1 to Day 6, n = 10, Day 1): 212 ± 3 mm Hg
Systolic blood pressure (mm Hg) Treated animals ([1]; p.o. 25 mg/kg/day Day 1 to Day 6, n = 10, Day 2): 211 ± 1 mm Hg
Systolic blood pressure (mm Hg) Treated animals ([1]; p.o. 25 mg/kg/day Day 1 to Day 6, n = 10, Day 3): 210 ± 2 mm Hg
Systolic blood pressure (mm Hg) Treated animals ([1]; p.o. 25 mg/kg/day Day 1 to Day 6, n = 10, Day 4): 205 ± 2 mm Hg
Systolic blood pressure (mm Hg) Treated animals ([1]; p.o. 25 mg/kg/day Day 1 to Day 6, n = 10, Day 5): 205 ± 1 mm Hg
Systolic blood pressure (mm Hg) Treated animals ([1]; p.o. 25 mg/kg/day Day 1 to Day 6, n = 10, Day 6): 213 ± 2 mm Hg
Systolic blood pressure (mm Hg) Treated animals ([1]; p.o. 25 mg/kg/day Day 1 to Day 6, n = 10, Day 7): 209 ± 4 mm Hg
Systolic blood pressure (mm Hg) Treated animals ([1]; p.o. 25 mg/kg/day Day 1 to Day 6, n = 10, Day 8): 212 ± 2 mm Hg
Systolic blood pressure (mm Hg) Treated animals ([1]; p.o. 25 mg/kg/day Day 1 to Day 6, n = 10, Day 9): 208 ± 2 mm Hg
Systolic blood pressure (mm Hg) Treated animals ([1]; p.o. 25 mg/kg/day Day 1 to Day 6, n = 10, Day 10): 214 ± 1 mm Hg
% inhibition renal NEP ([2]; 1 h after administration): 75 ± 3%
% inhibition renal NEP ([2]; 2 h after administration): 70 ± 5%
% inhibition renal NEP ([2]; 4 h after administration): 74 ± 4%
% inhibition renal NEP ([2]; 8 h after administration): 60 ± 10%
% inhibition renal NEP ([2]; 16 h after administration): 48 ± 4%
% inhibition pulmonary ACE ([3]; 1 h after administration): 90 ± 1%
% inhibition pulmonary ACE ([3]; 2 h after administration): 86 ± 3%
% inhibition pulmonary ACE ([3]; 4 h after administration): 87 ± 3%
% inhibition pulmonary ACE ([3]; 8 h after administration): 73 ± 3%
% inhibition pulmonary ACE ([3]; 16 h after administration): 20 ± 8%

O=C(O)CNC(=O)C(CS)Cc1ccccc1 (stereo not drawn) [thiorphan, N-(2-mercaptomethyl-3-phenyl-1-oxopropyl)glycine]
effect in clinical trials [4]: causes natriuresis and diuresis without any significant hypotensive effect and without decreasing cardiac overload
inhibitory property, concentration [5]: nanomolar concentration
activity on NEP versus ACE in words [6]: exhibits an activity on neutral endopeptidase (NEP) only
